Literature values as cited in PubChem BioAssay AID1259409 (Chemical Carcinogenesis Research Information System (CCRIS), 2018).

System: rodent chemically induced tumor inhibition, incidence and multiplicity
Experiment: CCRIS tumor inhibitor studies
Conditions: Carcinogen: N-METHYL-N-NITROSOUREA, 684-93-5, Route [Inhibitor]: ORAL, Promoter: NONE USED

For `CC1=C(/C=C/C(C)=C/C=C/C(C)=C\C(=O)O)C(C)(C)CCC1`, which “tumour outcome (control, treated, inhibition, significance)” value (Dose [Inhibitor]: 25 MG/KG DAILY IN DIET STARTING 1 D AFTER LAST CARCINOGEN INJECTION AND CONTINUING FOR 256 D (STUDY DURATION: 285 D), Species: RAT, Strain/Sex: WISTAR-LEWIS/FEMALE, Target Tissue: Type of Lesion: URINARY BLADDER: PAPILLARY UROTHELIAL TUMOR, Dose [Carcinogen]: 1.5 MG IN 0.15 ML SALINE INJECTED INTO A SURGICALLY EXPOSED BLADDER 1/2 WK FOR A TOTAL OF 3 INJECTIONS) is on record?
Its value is 8/30 (27%), 2/23 (9%), 67%, p<0.05.

And the “tumour outcome (control, treated, inhibition, significance)” value (Dose [Inhibitor]: 120 MG/KG DIET DAILY STARTING 1 WK AFTER LAST CARCINOGEN TREATMENT AND CONTINUING FOR 6 MO (STUDY DURATION: 9 MO), Species: HAMSTER, Strain/Sex: SYRIAN/MALE, Target Tissue: Type of Lesion: TRACHEA: BENIGN EPITHELIAL NEOPLASM, Dose [Carcinogen]: 0.5% IN 1 ML PHOSPHATE-BUFFERED SALINE 1/WK FOR 12 WK)?
Its value is 6/63 (10%), 13/61 (21%), -110%, not significant.

And the “tumour outcome (control, treated, inhibition, significance)” value (Dose [Inhibitor]: 120 MG/KG DIET DAILY STARTING 1 WK AFTER LAST CARCINOGEN TREATMENT AND CONTINUING FOR 6 MO (STUDY DURATION: 9 MO), Species: HAMSTER, Strain/Sex: SYRIAN/MALE, Target Tissue: Type of Lesion: TRACHEA: CARCINOMA, Dose [Carcinogen]: 0.5% IN 1 ML PHOSPHATE-BUFFERED SALINE 1/WK FOR 12 WK)?
The value was 4/63 (6%), 12/61 (20%), -233%, p<0.05.

And the “tumour outcome (control, treated, inhibition, significance)” value (Dose [Inhibitor]: 120 MG/KG DIET DAILY STARTING 1 WK AFTER LAST CARCINOGEN TREATMENT AND CONTINUING FOR 6 MO (STUDY DURATION: 9 MO), Species: HAMSTER, Strain/Sex: SYRIAN/MALE, Target Tissue: Type of Lesion: TRACHEA: EPITHELIAL NEOPLASM, Dose [Carcinogen]: 0.5% IN 1 ML PHOSPHATE-BUFFERED SALINE 1/WK FOR 12 WK)?
The value was 10/63 (16%), 22/61 (36%), -125%, p<0.05.

What about the “tumour outcome (control, treated, inhibition, significance)” value (Dose [Inhibitor]: 120 MG/KG IN DIET DAILY FOR 6 MO STARTING 1 WK AFTER FINAL CARCINOGEN DOSE (STUDY DURATION: 9 MO), Species: HAMSTER, Strain/Sex: SYRIAN/MALE, Target Tissue: Type of Lesion: TRACHEA: BENIGN EPITHELIAL NEOPLASM, Dose [Carcinogen]: 0.5% SOLUTION FOR 5 SECOND EXPOSURE 1/WK FOR 12 WK) of the same compound?
Its value is 6/63 (10%), 13/61 (21%), -110%, not significant.

And the “tumour outcome (control, treated, inhibition, significance)” value (Dose [Inhibitor]: 120 MG/KG IN DIET DAILY FOR 6 MO STARTING 1 WK AFTER FINAL CARCINOGEN DOSE (STUDY DURATION: 9 MO), Species: HAMSTER, Strain/Sex: SYRIAN/MALE, Target Tissue: Type of Lesion: TRACHEA: EPITHELIAL NEOPLASM, Dose [Carcinogen]: 0.5% SOLUTION FOR 5 SECOND EXPOSURE 1/WK FOR 12 WK)?
The value was 10/63 (16%), 22/61 (36%), -125%, p<0.05.

And the “tumour outcome (control, treated, inhibition, significance)” value (Dose [Inhibitor]: 120 OR 300 MG/KG DIET DAILY STARTING ON THE DAY OF THE FIRST INSTILLATION OF CARCINOGEN OR 1 D AFTER THE LAST CARCINOGEN, Species: RAT, Strain/Sex: WISTAR-LEWIS/FEMALE, Target Tissue: Type of Lesion: URINARY BLADDER: CARCINOMA, Dose [Carcinogen]: 1.5 MG IN 0.15 ML OF 0.9% NACL SOLUTION INSTILLED DIRECTLY INTO THE URINARY BLADDER 1/2 WK FOR A TOTAL OF 3 DOSES)?
Its value is 10/23 (43%), 27/87 (31%), 28%, p 0.11.

And the “tumour outcome (control, treated, inhibition, significance)” value (Dose [Inhibitor]: 120 OR 300 MG/KG DIET DAILY STARTING ON THE DAY OF THE FIRST INSTILLATION OF CARCINOGEN OR 1 D AFTER THE LAST CARCINOGEN, Species: RAT, Strain/Sex: WISTAR-LEWIS/FEMALE, Target Tissue: Type of Lesion: URINARY BLADDER: NEOPLASM, Dose [Carcinogen]: 1.5 MG IN 0.15 ML OF 0.9% NACL SOLUTION INSTILLED DIRECTLY INTO THE URINARY BLADDER 1/2 WK FOR A TOTAL OF 3 DOSES)?
The value was 13/23 (57%), 35/87 (40%), 30%, p 0.08.

And the “tumour outcome (control, treated, inhibition, significance)” value (Dose [Inhibitor]: 120 OR 300 MG/KG DIET DAILY STARTING ON THE DAY OF THE FIRST INSTILLATION OF CARCINOGEN OR 1 D AFTER THE LAST CARCINOGEN, Species: RAT, Strain/Sex: WISTAR-LEWIS/FEMALE, Target Tissue: Type of Lesion: URINARY BLADDER: SQUAMOUS CELL CARCINOMA, Dose [Carcinogen]: 1.5 MG IN 0.15 ML OF 0.9% NACL SOLUTION INSTILLED DIRECTLY INTO THE URINARY BLADDER 1/2 WK FOR A TOTAL OF 3 DOSES)?
Its value is 4/23 (17%), 8/87 (9%), 47%, p 0.11.

What about the “tumour outcome (control, treated, inhibition, significance)” value (Dose [Inhibitor]: 120 OR 300 MG/KG DIET DAILY STARTING ON THE DAY OF THE FIRST INSTILLATION OF CARCINOGEN OR 1 D AFTER THE LAST CARCINOGEN, Species: RAT, Strain/Sex: WISTAR-LEWIS/FEMALE, Target Tissue: Type of Lesion: URINARY BLADDER: TRANSITIONAL CELL CARCINOMA, Dose [Carcinogen]: 1.5 MG IN 0.15 ML OF 0.9% NACL SOLUTION INSTILLED DIRECTLY INTO THE URINARY BLADDER 1/2 WK FOR A TOTAL OF 3 DOSES) of the same compound?
The value was 7/23 (30%), 23/87 (26%), 13%, p 0.23.
